The values that follow come from patent publication US5670482A, “Neuropeptide Y antagonists” (Glaxo Wellcome Inc., priority 1992, dated 1997).

Positions of bridges follow the written chain, without caps; N, C: chain ends. Chains are numbered I, II in the order given. No end group written: not given here.

The test system of this assay is NPY-induced increase of perfusion pressure in isolated perfused rat kidney. Briefly: Isolated perfused rat kidney preparation. Particulars: antagonist infused during 5 min, read-out: IC50 for the inhibition of the NPY-induced increase of perfusion pressure. The procedure:
Male CD rats (200-400 g) are anaesthetised with a mixture of Acepromazine (2.8 mg/kg) and Kenamine (112 mg/kg) injected i.p. The rat's abdomen is opened through the midline. The renal arteries and descending aorta are cleaned and, with minimal disruption of blood flow, one kidney is cannulated through the proximal renal artery using a stainless steel 20G blunt-tipped needle attached to Tygon tubing and a peristaltic pump. As soon as the first ligature is complete and perfusion of the kidney starts (10 ml/min) and the kidney is removed from the animal and placed in a constant temperature perfusion chamber. The perfusion pressure is followed by an on-line Statham pressure transducer and changes recorded in a Grass Polygraph.
Administration of Drugs: Neuropeptide Y and other agonists are administered by a single bolus injection (0.1 ml) through an injection port situated about 6 inches from the tip of the needle (approximately 0.3 ml, total volume). Antagonists are infused during 5 min (0.15 ml/min) into the kidney through an injection port situtated before the perfusion pump to allow for good mixing and constant concentration (dilution of 0.15 ml into 10 ml). […]
Results: Using the above experimental procedure we have determined the IC50 for the inhibition of the NPY-induced increase of perfusion pressure for: […]

One may read the IC50 as the concentration that gives 50% inhibition.

With “IleCysProCysTyrArgLeuArgTyr-NH2,Cyclic (2,4'),(4,2')-Disulfide Dimer (chain 1 ICPCYRLRY-NH2; chain 2 ICPCYRLRY-NH2; disulfide (positions not given here); not fully specified (bridges))”, the 50% inhibitory concentration (IC50) stood at 2.5 nM. With “IleCysProCysTyrArgLeuArgTyr-NH2,Cyclic (2,2'),(4,4')-Disulfide Dimer (chain 1 ICPCYRLRY-NH2; chain 2 ICPCYRLRY-NH2; disulfide I:2-II:2, I:4-II:4; N-terminus assumed; SMILES CC[C@H](C)[C@H](N)C(=O)N[C@H]1CSSC[C@H](NC(=O)[C@@H](N)[C@@H](C)CC)C(=O)N2CCC[C@H]2C(=O)N[C@H](C(=O)N[C@@H](Cc2ccc(O)cc2)C(=O)N[C@@H](CCCNC(=N)N)C(=O)N[C@@H](CC(C)C)C(=O)N[C@@H](CCCNC(=N)N)C(=O)N[C@@H](Cc2ccc(O)cc2)C(N)=O)CSSC[C@@H](C(=O)N[C@@H](Cc2ccc(O)cc2)C(=O)N[C@@H](CCCNC(=N)N)C(=O)N[C@@H](CC(C)C)C(=O)N[C@@H](CCCNC(=N)N)C(=O)N[C@@H](Cc2ccc(O)cc2)C(N)=O)NC(=O)[C@@H]2CCCN2C1=O)”, the IC50 was 2.5 nM.
